PubChem BioAssay (NCI)
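Growth conditions: 96-well plates. Treatment: test compound, 48 hours, 5 concentrations. Analysis: linear interpolation between bracketing concentrations; unreached endpoints set to highest concentration. TGI denotes the concentration required for complete inhibition of growth.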

Key:
Experiment in all cases: NCI-60 cell line screen, 48 h
UACC-62 melanoma = system: UACC-62 melanoma
MDA-MB-435 = system: MDA-MB-435
U251 CNS = system: U251 CNS
SNB-75 CNS = system: SNB-75 CNS
HCT-116 colon = system: HCT-116 colon
HCC-2998 colon = system: HCC-2998 colon
HOP-92 NSCLC = system: HOP-92 NSCLC
ACHN renal = system: ACHN renal
CCRF-CEM leukemia = system: CCRF-CEM leukemia
SF-268 CNS = system: SF-268 CNS
NCI/ADR-RES ovarian = system: NCI/ADR-RES ovarian
RXF 393 renal = system: RXF 393 renal

Compound	TGI (UACC-62 melanoma) [µM]	TGI (MDA-MB-435) [µM]	TGI (U251 CNS) [µM]	TGI (SNB-75 CNS) [µM]	TGI (HCT-116 colon) [µM]	TGI (HCC-2998 colon) [µM]	TGI (HOP-92 NSCLC) [µM]	TGI (ACHN renal) [µM]	TGI (CCRF-CEM leukemia) [µM]	TGI (SF-268 CNS) [µM]	TGI (NCI/ADR-RES ovarian) [µM]	TGI (RXF 393 renal) [µM]
O=C(Nc1nccs1)NS(=O)(=O)n1cnc2ccccc21	> 100	> 100	> 100	> 100	> 100	> 100	> 100	> 100	> 100	> 100	> 100	> 100
O=C1NC(N2CCCCC2)=N/C1=C\c1ccccc1	> 100	> 100	> 100	> 100	> 100	> 100	> 100	> 100	> 100	> 100	> 100	> 100
COc1ccc(NC(=S)Nc2c(C)n(C)n(-c3ccccc3)c2=O)cc1	> 100	> 100	> 100	> 100	> 100	> 100	> 100	> 100	> 100	> 100	> 100	> 100
CCNC1=C(NC(=O)CCl)C(=O)c2ccccc2C1=O		36.4	35.9	> 10	33.7	> 10	36.2	31.9	58.1	32.8	44	30.6
CC1(C)CC[C@]2(C(=O)O)CC[C@]3(C)C(=CC[C@@H]4[C@@]5(C)CC[C@H](OC6OC(CO)C(O)C(O)C6O)C(C)(C)[C@@H]5CC[C@]43C)[C@@H]2C1 (stereo partly drawn)	3.28	3.39	3.05	5.33	3.13	3.18	3.06	3.04	6.36	3.51	22.9	3.77
COc1ccc(NC(=O)CC(=O)N2N=C(C)C(N=Nc3ccc(C(=O)O)cc3)C2=O)cc1 (stereo not drawn)	> 100	> 100	> 100	> 100	> 100	> 100	> 100	> 100	> 100	> 100	> 100	> 100
Cn1c(O)c(C=Nc2ccc(Cl)cc2Cl)c(=O)n(C)c1=O	> 100	> 100	> 100	> 100	> 100	> 100	> 100	> 100	> 100	> 100	> 100	> 100
Nc1nc(Cl)c(C=O)c(NCC2(CO)CCC2)n1	35.1	> 100	31.9	67.7	40.6	22.9	31.1	> 100	34.1	51.8	> 100	50.1
COc1ccc(C(=O)N(Cc2cccnc2)C(=S)N(Cc2cccnc2)C(=O)c2ccc(OC)cc2)cc1	> 100	> 100	> 100	42.9	> 100	> 100	> 100	> 100	> 100	> 100	> 100	> 100
COc1cc(C(=O)N(C(=S)OC23CC4CC(CC(C4)C2)C3)c2ccccc2)cc(OC)c1OC	> 100	> 100	53	> 100	46.4	61.4	> 100	> 100	36	> 100	> 100	> 100
NS(=O)(=O)c1ccc(N2C(=O)C(=O)N(c3ccccc3)C2=S)cc1	> 100	> 100	> 100	> 100	> 100	> 100	95.9	> 100	> 100	> 100	> 100	> 100
COc1ccc2c(c1)OC1c3ccccc3OCC21 (stereo not drawn)	> 100	> 100	> 100	> 100	> 100	> 100	> 100	> 100	> 100	> 100	> 100	> 100
ClCCc1ccccc1CC1=NCCc2ccccc21	98.9	> 100	> 100	96.8	> 100	62.5	> 100	> 100	> 100	> 100	75.6	61.8
CNC(=O)OCC1=C(COC(=O)NC)C(C)N(c2ccccc2)C1 (stereo not drawn)	68.8	96.4	> 100	94.5	> 100	80.3	> 100	> 100	> 100	> 100	> 100	> 100
COC(=O)[C@]1(Cc2ccc3ccccc3c2)CCCCCCN1C(=O)c1ccccc1	> 51.3	> 53.1	> 46.1	54.7	> 44.1	> 49	> 52.9	> 73.2	> 53.7	> 54	> 49.7	> 47.5
COc1cc2c3c(c1OC)C(=O)C(=O)C1=C3N(CCC1)CC2	42	53.8	> 100		47.3	> 100	60.4	> 100	80.4	92.1	> 100	> 100
Cc1cc(=O)n2nc(CSc3n[nH]c(=S)s3)sc2n1	> 100	> 100	> 100	> 100	> 100	> 100	> 100	> 100	> 100	> 100	> 100	> 100
COc1ccc2c(c1)C(=O)[C@@](Nc1ccc(C=O)cc1)(OC)[C@@](OC)(c1ccc([N+](=O)[O-])cc1)O2	> 10	> 10	> 10	> 10	> 10	> 10		> 10	> 10	> 10	> 10	> 10
